Measurements: patent US4016158A, “Cephalosporin derivatives” (Roussel-UCLAF, priority 1971, dated 1977)
In brackets after ≈: the same amount, converted by molar mass. Read-outs that look alike come from different tables or passages of the source.

Tests used:
Staphylococcus aureus = assay: in vivo antibacterial activity, experimental staphylococcia in mice, oral
Experimental: The in vivo antibacterial activity for product A was determined in mice with an experimental staphylococcia. 50 male mice weighing 20 to 23 g were divided into 5 groups of 10 mice each and all were infected interperitoneally with 0.5 ml of a 15 hour culture of Staphylococcus aureus in Pasteur nutritive broth diluted 1/3 with distilled water. Each mouse received product A orally 1 hour and 5 hours after the infection.

[1] = transcutaneous toxicity in rats; conditions: rat, in vivo, topical or ocular, male rats
[2] = tested on: Streptococcus hemolyticus 905; assay: bactericidal activity (germs still alive); assay type: cell-based; set-up: key: +++: all the germs are still alive; +: it remains some colonies; -: it does not remain any germ
Experimental: (§1) The bactericidal activity of product A was ascertained by determining the number of germs still alive after treatment with increasing doses of antibiotic on a liquid media. From the cultures in tubes having 72 hours (previously described method), were placed on agar in Petri dishes a constant sample of the last tube having grown and of the following tubes where no more growth in transillumination is observed. After 48 hours of culture in the Petri dishes, the number of colonies was ascertained.

Escherichia coli 070 = assay: bactericidal activity (germs still alive); assay type: cell-based; set-up: key: +++: all the germs are still alive; +: it remains some colonies; -: it does not remain any germ
Experimental: as §1

[3] = tested on: Streptococcus hemolyticus 920; assay: bactericidal activity (germs still alive); assay type: cell-based; set-up: key: +++: all the germs are still alive; +: it remains some colonies; -: it does not remain any germ
Experimental: as §1

Escherichia coli 4965 = assay: bactericidal activity (germs still alive); assay type: cell-based; set-up: key: +++: all the germs are still alive; +: it remains some colonies; -: it does not remain any germ
Experimental: as §1

[4] = tested on: Diplococcus pneumoniae 735; assay: bactericidal activity (germs still alive); assay type: cell-based; set-up: key: +++: all the germs are still alive; +: it remains some colonies; -: it does not remain any germ
Experimental: as §1

oral toxicity in rats = conditions: rat, in vivo
Experimental: The oral toxicity of product A was determined on homogenous groups of 10 male rats weighing 100 to 110 g by administering orally a 0.25% by weight dispersion of product A in an aqueous suspension of carboxymethyl cellulose with an esophagus probe. […] The rats in the test were held in a place in which the air was filtered and sterilized by ultraviolet light and the temperature was held at 22° ± 1° C with a controlled humidity.

Escherichia coli 1718 = assay: MIC (Table II); assay type: cell-based; conditions: read-out: minimum inhibition concentration
Experimental: (§2) The antibiotic activity was determined by the diffusion method in a gelose medium at a pH of 7. The following Table expresses the minimum concentration of inhibition in mcg/ml (CMl) for the products against different microbial strains.
(§3) Using the same procedure as in Table I, the minimum inhibition concentration in mcg/ml was determined against different microbial strains with L(-) cis 7-[D(-)-α-aminophenylacetamido]-3-isopropyl-3-cepheme-4-carboxylic acid (product A) of Example 9.

[5] = tested on: Streptococcus hemolyticus 905; assay: MIC (Table II); assay type: cell-based; conditions: Streptococcus pyogenes, read-out: minimum inhibition concentration
Experimental: as §2, §3

Escherichia coli 1751 = assay: MIC (Table II); assay type: cell-based; conditions: read-out: minimum inhibition concentration
Experimental: as §2, §3

[6] = tested on: Staphylococcus aureus 397; assay: MIC (Table II); assay type: cell-based; conditions: read-out: minimum inhibition concentration
Experimental: as §2, §3

Proteus mirabilis 8029 = assay: MIC (Table II); assay type: cell-based; conditions: read-out: minimum inhibition concentration
Experimental: as §2, §3

Escherichia coli 9957 = assay: MIC (Table II); assay type: cell-based; conditions: read-out: minimum inhibition concentration
Experimental: as §2, §3

Escherichia coli 5003 = assay: MIC (Table II); assay type: cell-based; conditions: read-out: minimum inhibition concentration
Experimental: as §2, §3

Proteus mirabilis 3113 = assay: MIC (Table II); assay type: cell-based; conditions: read-out: minimum inhibition concentration
Experimental: as §2, §3

[7] = tested on: Salmonella brandebourg 550; assay: MIC (Table II); assay type: cell-based; conditions: read-out: minimum inhibition concentration
Experimental: as §2, §3

Escherichia coli 8497 = assay: MIC (Table II); assay type: cell-based; conditions: read-out: minimum inhibition concentration
Experimental: as §2, §3

[8] = tested on: Staphylococcus aureus 54146; assay: MIC (Table II); assay type: cell-based; conditions: read-out: minimum inhibition concentration
Experimental: as §2, §3

[9] = tested on: Streptococcus hemolyticus 920; assay: MIC (Table II); assay type: cell-based; conditions: Streptococcus pyogenes, read-out: minimum inhibition concentration
Experimental: as §2, §3

[10] = tested on: Staphylococcus aureus 4546; assay: MIC (Table II); assay type: cell-based; conditions: Staphylococcus aureus, 4546, read-out: minimum inhibition concentration
Experimental: as §2, §3

Escherichia coli Taylor = assay: MIC (Table II); assay type: cell-based; conditions: read-out: minimum inhibition concentration
Experimental: as §2, §3

[11] = tested on: Staphylococcus aureus 017; assay: MIC (Table II); assay type: cell-based; conditions: read-out: minimum inhibition concentration
Experimental: as §2, §3

Escherichia coli 3019 = assay: MIC (Table II); assay type: cell-based; conditions: read-out: minimum inhibition concentration
Experimental: as §2, §3

[12] = 0.5 mg repeated two times, oral
[13] = 0.5 mg repeated two times, oral, 10 mice
[14] = 1.0 mg repeated two times, oral
[15] = 2.0 mg repeated two times, oral
[16] = 3.0 mg repeated two times, oral

CC(C)C1=C(C(=O)O)N2C(=O)[C@@H](NC(=O)[C@H](N)c3ccccc3)[C@H]2SC1 [Example 9, L (+) cis 7-[D (-)-α-aminophenylacetamido]-3-isopropyl-3-cepheme-4-carboxylic acid]
Mice living on 8th day (Staphylococcus aureus; [12]): 7/10
Mice living on 8th day (%) (Staphylococcus aureus; [12]): 70%
Mortality at 10h (Staphylococcus aureus; [13]): 1
Mortality at 22h (Staphylococcus aureus; [13]): 1
Mortality at 70h (Staphylococcus aureus; [13]): 1
Mice living on 8th day (Staphylococcus aureus; [14]): 9/10
Mice living on 8th day (%) (Staphylococcus aureus; [14]): 90%
Mortality at 70h (Staphylococcus aureus; 1.0 mg repeated two times, oral, 10 mice): 1
Mice living on 8th day (Staphylococcus aureus; [15]): 10/10
Mice living on 8th day (%) (Staphylococcus aureus; [15]): 100%
Mice living on 8th day (Staphylococcus aureus; [16]): 10/10
Mice living on 8th day (%) (Staphylococcus aureus; [16]): 100%
antibacterial activity (Staphylococcus aureus; administered orally, 1 hour and 5 hours after infection): good antibacterial activity
LD50 at 192 h [1]: > 1600 mg/kg
germs still alive ([2]; 1 μg/ml): +++
germs still alive ([2]; 2 μg/ml): -
germs still alive ([2]; 3 μg/ml): -
germs still alive (Escherichia coli 070; 30 μg/ml): +++
germs still alive (Escherichia coli 070; 40 μg/ml): -
germs still alive ([3]; 2 μg/ml): +++
germs still alive ([3]; 3 μg/ml): -
germs still alive (Escherichia coli 4965; 30 μg/ml): +++
germs still alive (Escherichia coli 4965; 40 μg/ml): -
germs still alive ([4]; 1 μg/ml): +++
germs still alive ([4]; 2 μg/ml): -
germs still alive ([4]; 3 μg/ml): -
LD50 (oral toxicity in rats): > 800 mg/kg
abnormal symptoms (oral toxicity in rats; 800 mg/kg): none of the rats presented any abnormal symptoms
MIC (Escherichia coli 1718; 24h): 40 mg/L (≈ 107 µM)
MIC (Escherichia coli 1718; 48h): 40 mg/L (≈ 107 µM)
MIC (Escherichia coli 1718; 72h): 60 mg/L (≈ 160 µM)
MIC ([5]; 24h): 2 mg/L (≈ 5.33 µM)
MIC ([5]; 48h): 2 mg/L (≈ 5.33 µM)
MIC ([5]; 72h): 2 mg/L (≈ 5.33 µM)
MIC (Escherichia coli 1751; 24h): 30 mg/L (≈ 79.9 µM)
MIC (Escherichia coli 1751; 48h): 30 mg/L (≈ 79.9 µM)
MIC (Escherichia coli 1751; 72h): 30 mg/L (≈ 79.9 µM)
MIC ([6]; 24h): 2 mg/L (≈ 5.33 µM)
MIC ([6]; 48h): 5 mg/L (≈ 13.3 µM)
MIC ([6]; 72h): 10 mg/L (≈ 26.6 µM)
MIC (Proteus mirabilis 8029; 24h): 60 mg/L (≈ 160 µM)
MIC (Proteus mirabilis 8029; 48h): > 100 mg/L
MIC (Escherichia coli 9957; 24h): 40 mg/L (≈ 107 µM)
MIC (Escherichia coli 9957; 48h): 100 mg/L (≈ 266 µM)
MIC (Escherichia coli 9957; 72h): 100 mg/L (≈ 266 µM)
MIC (Escherichia coli 5003; 24h): 40 mg/L (≈ 107 µM)
MIC (Escherichia coli 5003; 48h): 40 mg/L (≈ 107 µM)
MIC (Escherichia coli 5003; 72h): 40 mg/L (≈ 107 µM)
MIC (Proteus mirabilis 3113; 24h): 100 mg/L (≈ 266 µM)
MIC (Proteus mirabilis 3113; 48h): > 100 mg/L
MIC ([7]; 24h): 30 mg/L (≈ 79.9 µM)
MIC ([7]; 48h): 30 mg/L (≈ 79.9 µM)
MIC ([7]; 72h): 40 mg/L (≈ 107 µM)
MIC (Escherichia coli 8497; 24h): 100 mg/L (≈ 266 µM)
MIC (Escherichia coli 8497; 48h): 100 mg/L (≈ 266 µM)
MIC (Escherichia coli 8497; 72h): 100 mg/L (≈ 266 µM)
MIC ([8]; 24h): 1 mg/L (≈ 2.66 µM)
MIC ([8]; 48h): 1 mg/L (≈ 2.66 µM)
MIC ([8]; 72h): 2 mg/L (≈ 5.33 µM)
MIC ([9]; 24h): 2 mg/L (≈ 5.33 µM)
MIC ([9]; 48h): 2 mg/L (≈ 5.33 µM)
MIC ([9]; 72h): 3 mg/L (≈ 7.99 µM)
MIC ([10]; 24h): 0.6 mg/L (≈ 1.6 µM)
MIC ([10]; 48h): 2 mg/L (≈ 5.33 µM)
MIC ([10]; 72h): 3 mg/L (≈ 7.99 µM)
MIC (Escherichia coli Taylor; 24h): 40 mg/L (≈ 107 µM)
MIC (Escherichia coli Taylor; 48h): 40 mg/L (≈ 107 µM)
MIC (Escherichia coli Taylor; 72h): 60 mg/L (≈ 160 µM)
MIC ([11]; 24h): 2 mg/L (≈ 5.33 µM)
MIC ([11]; 48h): 5 mg/L (≈ 13.3 µM)
MIC ([11]; 72h): 15 mg/L (≈ 40 µM)
MIC (Escherichia coli 3019; 24h): 30 mg/L (≈ 79.9 µM)
MIC (Escherichia coli 3019; 48h): 40 mg/L (≈ 107 µM)
MIC (Escherichia coli 3019; 72h): 40 mg/L (≈ 107 µM)
